According to US10973831B2, “Fluoropiperidine compounds as pure 5-HT 6 receptor antagonists” (SUVEN LIFE SCIENCES LIMITED, priority 2017, dated 2021):

Assays:
recombinant human 5-HT2A = target: T1, recombinant human 5-HT2A (Homo sapiens, UniProt P28223); experiment: Determination of 5-HT2A binding ([3H]-Ketanserin radioligand, membranes); conditions: human 5-HT2A membranes, [3H]-Ketanserin 1.75 nM
T1 construct: purchased Perkin Elmer ES-313-M400UA
Experimental: Membrane preparation from recombinant human 5-HT2A cell line (Cat no. ES-313-M400UA) and radio ligand Ketanserin Hydrochloride, [Ethylene-^3H]-(R-41468) (Cat no. NET791250UC) were purchased from Perkin Elmer. All other reagents used in buffer preparation were purchased from Sigma. The final ligand concentration was 1.75 nM; non-specific determinant was 1-NP [10 μM] and 5-HT2A membrane protein (5 μg/well). 1-NP was used as a positive control. Reactions were carried out in 67 mM Tris pH 7.6 containing 0.5 mM EDTA buffer for 60 minutes at 25° C. Reaction was stopped by rapid filtration followed by six washes of the binding mixture using 96 well harvest plate (Millipore Cat no. MSFBNXB50) pre coated with 0.33% polyethyleneimine. The plate was dried and the bound radioactivity collected on the filters was determined by scintillation counting using MicroBeta TriLux. Radio ligand binding in the presence of non-labeled compound was expressed as a percent of the total binding and plotted against the log concentration of the compound. Ki values were determined using a nonlinear, iterative curve-fitting computer program of Graph pad Prism 4 software.

[1] = Rodent brain penetration study; format: in vivo, male Wistar rats; conditions: male, Wistar, brain and plasma, po; rat, 3 mg/kg, p.o., brain-plasma ratio; read-out: Single dose rat brain penetration (Cb/Cp)
Experimental: Male Wistar rats (260±40 grams) were used as experimental animals. Three animals were housed in each cage. Animals were given water and food ad libitum throughout the experiment and maintained on a 12 hours light/dark cycle.
Brain penetration was determined in discrete manner in rats. One day prior to dosing day, male Wistar rats were acclimatized and randomly grouped according to their weight. At each time point (0.50, 1 and 2 hours) n=3 animals were used.
The test compounds were suitably preformulated and administered orally at (free base equivalent) 3 mg/kg. Blood samples were collected via cardiac puncture by using isoflurane anesthesia. The animals were sacrificed to collect brain tissue. Plasma was separated and brain samples were homogenized and stored frozen at −20° C. until analysis. The concentrations of the test compounds in plasma and brain were determined using LC-MS/MS method.
The test compounds were quantified in plasma and brain homogenate by qualified LC-MS/MS method using suitable extraction technique. The test compounds were quantified in the calibration range of 1-1000 ng/mL in plasma and brain homogenate. Study samples were analyzed using calibration samples in the batch and quality control samples spread across the batch. Extent of brain-plasma ratio (Cb/Cp) was calculated.

Male Wistar rats = experiment: Object recognition task model; format: in vivo; conditions: rat, 0.1 mg/kg, p.o.
Experimental: The cognition-enhancing properties of compounds of this invention were estimated using an animal model of cognition i.e., object recognition task.
Male Wistar rats (˜230-280 grams) were used as experimental animals. Four animals were housed in each cage. Animals were kept on 20% food deprivation before one day and given water ad libitum throughout the experiment and maintained on a 12 hours light/dark cycle. The rats were habituated to individual arenas for […] in the absence of any objects.
One group of 12 rats received vehicle (1 mL/kg) orally and another set of animals received compound of the formula (I) orally thirty minutes prior to familiar (T1) and choice trial (T2).
The experiment was carried out in a 50×50×50 cm open field made up of acrylic. During the familiarization phase (T1), the rats were placed individually in the open field for 3 minutes, in which two identical objects (plastic bottles, 12.5 cm height×5.5 cm diameter) covered in yellow masking tape alone (a1 and a2) were positioned in two adjacent corners (10 cm from the walls). After 24 hours of the (T1) trial, the same rats were placed in the same arena as they were placed in T1 trial. During the choice phase (T2) rats were allowed to explore the open field for 3 minutes in presence of one familiar object (a3) and one novel object (b) (Amber color glass bottle, 12 cm high and 5 cm in diameter). During the T1 and T2 trial, explorations of each object (defined as sniffing, licking, chewing or having moving vibrissae whilst directing the nose towards the object at a distance of less than 1 cm) were recorded separately by stopwatch.
T1 is the total time spent exploring the familiar objects (a1+a2).
T2 is the total time spent exploring the familiar object and novel object (a3+b).

[2] = system: extracellular levels of acetylcholine in ventral hippocampus; experiment: Acetylcholine modulation in ventral hippocampus (microdialysis); format: in vivo, male Wistar rats; conditions: Example 1 10 mg/kg; for acetylcholine peak levels, % of pre-dose levels: p.o. in combination with donepezil 1 mg/kg, s.c.
From the text: Four groups of male Wistar rats (240-300 g body weight) were stereotaxically implanted with a microdialysis guide cannula in ventral hippocampus (AP: −5.2 mm, ML: +5.0 mm, DV: −3.8 mm) under isoflurane anesthesia. Co-ordinates were taken according to atlas for the rat brain (Paxinos and Watson 2004) with reference points taken from bregma and vertical from the skull. […] After surgical recovery of 4-5 days, male Wistar rats were connected to dual quartz lined two-channel liquid swivel (Instech, UK) on a counter balance lever arm, which allowed unrestricted movements of the animal. […] On the day of study, probe was perfused with artificial cerebrospinal fluid (aCSF; NaCl 147 mM, KC13 mM, MgCl2 1 mM, CaCl2. 2H2O 1.3 mM, NaH2PO4.2H2O 0.2 mM and Na2HPO4.7H2O 1 mM, pH 7.2) at a flow rate of 1.5 μL/min and a stabilization period of 2 h was maintained. […] Dialysate samples were collected for an additional period of 4 h post treatment of example 1. Dialysates were stored below −50° C. prior to analysis. Acetylcholine in dialysate was quantified using LC-MS/MS method in the calibration range of 0.099 nmol/L-70.171 nmol/L. […] Incorrect probe placement was considered as criteria to reject the data from animal.

T1 sequence (P28223 whole entry): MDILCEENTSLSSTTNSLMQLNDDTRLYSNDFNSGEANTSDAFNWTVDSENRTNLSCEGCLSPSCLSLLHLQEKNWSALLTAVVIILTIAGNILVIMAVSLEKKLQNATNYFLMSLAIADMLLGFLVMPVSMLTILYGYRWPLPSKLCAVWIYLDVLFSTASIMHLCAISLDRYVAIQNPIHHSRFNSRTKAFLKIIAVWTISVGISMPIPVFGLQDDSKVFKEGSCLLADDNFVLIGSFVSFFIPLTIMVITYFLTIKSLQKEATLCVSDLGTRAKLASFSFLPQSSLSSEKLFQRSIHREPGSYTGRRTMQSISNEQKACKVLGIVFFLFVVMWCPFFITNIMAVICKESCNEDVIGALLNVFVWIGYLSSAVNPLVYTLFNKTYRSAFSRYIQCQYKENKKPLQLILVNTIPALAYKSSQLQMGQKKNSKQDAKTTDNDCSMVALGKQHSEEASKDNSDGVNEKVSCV

Cl.O=S(=O)(c1ccccc1)c1ccc2c(c1)OCCN2C1CCNCC1F (single isomer, unassigned; peak iii) [Example 1, 7-Phenylsulfonyl-4-(3-fluoropiperidin-4-yl)-3,4-dihydro-2H-benzo[1,4]oxazine hydrochloride (Peak III)]
Ki (recombinant human 5-HT2A): 130 nM | Kp [1]: 0.78 ± 0.2 | Exploration time mean ± S.E.M, Familiar object (Male Wistar rats; choice trial T2): 7.03 ± 1.1 s | Exploration time mean ± S.E.M, Novel object (Male Wistar rats; choice trial T2): 12.16 ± 0.72 s | Inference (Male Wistar rats; object recognition task): Active | Mean area under the curve values (AUC) of percent change in acetylcholine ([2]; p.o. + donepezil + memantine, compared to donepezil and memantine combination): significantly higher | Mean area under the curve values (AUC) of percent change in acetylcholine ([2]; p.o. + donepezil, compared to donepezil 1 mg/kg, s.c. alone): significantly higher | acetylcholine peak levels, % of pre-dose levels [2]: 1445±247% | acetylcholine peak levels, % of pre-dose levels ([2]; s.c. and memantine 1 mg/kg): 2822±415%
